Where two headings read alike, the source gives them in different places.
Molecular target: T1, VAV1 (Homo sapiens, UniProt P15498+Q96SW2)
T1 construct: A heterozygous VAV1 C-terminal HiBiT knock-in pool was generated at Monte Rosa Therapeutics from a clonal Jurkat cell; endogenous in cells; host or cells: Jurkat clone stably expressing LgBiT, homozygous GSPT1-G575N; heterozygous VAV1-HiBiT knock-in pool
Assay: VAV1 degradation activity, VAV1-HiBiT knock-in Jurkat luminescence assay (Example A, Table 1)
Type: cell-based
Conditions: VAV1-HiBiT knock-in Jurkat cells, luminescence read at 6 and 24 hours; for Dmax: Jurkat
How it was run: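 Luminescence was measured at 6 and 24 h after adding compound (10 μM stock) to VAV1-HiBiT knock-in Jurkat cells, which had been pre-incubated ~16 h at 37° C. in RPMI/10% FBS containing Endurazine. EC50 values came from control-normalised responses fitted to a 3-parameter logistic model with hillslope fixed at 1.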

[1] = read-out: VAV1 DC50 (nM), class

Compound | Dmax (read-out: VAV1 Dmax %) | Dmax (read-out: VAV1 Dmax %, class) | DC50 (read-out: VAV1 DC50) | DC50 [1]
O=C1CCC(c2cccc(-c3ccc(-n4c(C(F)(F)F)cccc4=O)cc3)c2Cl)C(=O)N1 (centres unmarked) [Compound 443, 3-(2-chloro-4′-(2-oxo-6-(trifluoromethyl)pyridin-1(2H)-yl)-[1,1′-biphenyl]-3-yl)piperidine-2,6-dione] | 99.3% | > 90% | 2.27 nM | ≤ 100 nM
O=C1CCC(c2cccc(-c3ccc(-n4cccc(CC(F)F)c4=O)cc3)c2Cl)C(=O)N1 (centres unmarked) [Compound 444, 3-(2-chloro-4′-(3-(2,2-difluoroethyl)-2-oxopyridin-1(2H)-yl)-[1,1′-biphenyl]-3-yl)piperidine-2,6-dione] | 97.7% | > 90% | 7.1 nM | ≤ 100 nM
O=C1CCC(c2cccc(-c3ccc(N4CCN(CC(F)(F)F)CC4=O)cc3)c2Cl)C(=O)N1 (centres unmarked) [Compound 445, 3-(2-chloro-4′-(2-oxo-4-(2,2,2-trifluoroethyl)piperazin-1-yl)-[1,1′-biphenyl]-3-yl)piperidine-2,6-dione] | 96% | > 90% | 11.5 nM | ≤ 100 nM
O=C1CCC(c2cccc(-c3ccc(N4CCN(CC(F)F)CC4=O)cc3)c2Cl)C(=O)N1 (centres unmarked) [Compound 446, 3-(2-chloro-4′-(4-(2,2-difluoroethyl)-2-oxopiperazin-1-yl)-[1,1′-biphenyl]-3-yl)piperidine-2,6-dione] | 95.2% | > 90% | 9.83 nM | ≤ 100 nM
O=C1CCC(c2cccc(-c3ccc(Cn4ccccc4=O)nc3)c2Cl)C(=O)N1 (centres unmarked) [Compound 447, 3-(2-chloro-3-(6-((2-oxopyridin-1(2H)-yl)methyl)pyridin-3-yl)phenyl)piperidine-2,6-dione] | 61.9% | 60 to 90% | 741 nM | 100 to 1000 nM
Cc1ccn(C)c(=O)c1-c1ccc(-c2cccc(C3CCC(=O)NC3=O)c2Cl)cc1 (centres unmarked) [Compound 448, 3-(2-chloro-4′-(1,4-dimethyl-2-oxo-1,2-dihydropyridin-3-yl)-[1,1′-biphenyl]-3-yl)piperidine-2,6-dione] | 98.7% | > 90% | 1.63 nM | ≤ 100 nM
O=C1CCC(c2cccc(-c3ccc(N4CCCN(CC(F)(F)F)C4=O)cc3)c2Cl)C(=O)N1 (centres unmarked) [Compound 449, 3-(2-chloro-4′-(2-oxo-3-(2,2,2-trifluoroethyl)tetrahydropyrimidin-1(2H)-yl)-[1,1′-biphenyl]-3-yl)piperidine-2,6-dione] | 97% | > 90% | 6.45 nM | ≤ 100 nM
O=C1CCC(c2cccc(-c3ccc(N4CCCCC4=O)nc3)c2Cl)C(=O)N1 (centres unmarked) [Compound 450, 3-(2-chloro-3-(6-(2-oxopiperidin-1-yl)pyridin-3-yl)phenyl)piperidine-2,6-dione] | 75.9% | 60 to 90% | 173 nM | 100 to 1000 nM
O=C1CCC(c2cccc(-c3ccc(N4CCCOC4=O)nc3)c2Cl)C(=O)N1 (centres unmarked) [Compound 451, 3-(2-chloro-3-(6-(2-oxo-1,3-oxazinan-3-yl)pyridin-3-yl)phenyl)piperidine-2,6-dione] | 64% | 60 to 90% | 542 nM | 100 to 1000 nM
O=C1CCC(c2cccc(-c3ccc(N4CCCOC4=O)c(F)c3)c2Cl)C(=O)N1 (centres unmarked) [Compound 452, 3-(2-chloro-3′-fluoro-4′-(2-oxo-1,3-oxazinan-3-yl)-[1,1′-biphenyl]-3-yl)piperidine-2,6-dione] | 94% | > 90% | 21.5 nM | ≤ 100 nM
O=C1CCC(c2cccc(-c3ccc(Cc4cccnn4)cc3)c2Cl)C(=O)N1 (centres unmarked) [Compound 453, 3-(2-chloro-4′-(pyridazin-3-ylmethyl)-[1,1′-biphenyl]-3-yl)piperidine-2,6-dione] | 97.8% | > 90% | 13.4 nM | ≤ 100 nM

From patent US12257247B2 (Monte Rosa Therapeutics AG, priority 2023, dated 2025)
